One may read the EC50 as the concentration that produces a half-maximal response. One may read the Ki as the equilibrium dissociation constant of an inhibitor or competing ligand from its target.

A value given as a limit tells only on which side of the number the result lay.

The source of these data is ChEMBL document CHEMBL1135517, “N(6)-alkyl-2-alkynyl derivatives of adenosine as potent and selective agonists at the human adenosine A(3) receptor and a starting point for searching A(2B) ligands” (J Med Chem, 2002).

In assay [1] the target is T1, Adenosine receptor A2b (Homo sapiens, UniProt P29275).
T1 sequence (P29275 whole entry): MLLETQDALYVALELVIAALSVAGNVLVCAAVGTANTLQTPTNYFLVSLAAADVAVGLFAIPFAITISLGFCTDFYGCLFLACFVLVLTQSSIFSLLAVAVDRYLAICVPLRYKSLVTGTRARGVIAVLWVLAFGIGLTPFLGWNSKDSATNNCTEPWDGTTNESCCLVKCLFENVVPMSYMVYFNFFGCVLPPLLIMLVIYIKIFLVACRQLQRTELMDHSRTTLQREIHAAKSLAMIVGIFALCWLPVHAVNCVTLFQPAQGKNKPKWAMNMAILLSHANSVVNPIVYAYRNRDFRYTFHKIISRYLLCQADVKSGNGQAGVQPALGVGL
Briefly: Receptor-stimulated activity in CHO cells stably transfected with Human recombinant Adenosine A2B receptor measuring adenylyl cyclase activity.

Assay [2] has as its target Adenosine receptor A2a (Homo sapiens, UniProt P29274). The assay can be described thus: Binding affinity against Human recombinant Adenosine A2A receptor stably transfected in CHO cells using [3H]NECA as radioligand. It counts as cell-based.
Assay [3] has as its target T2, Adenosine receptor A3 (Homo sapiens, UniProt P0DMS8).
T2 sequence (P0DMS8 whole entry): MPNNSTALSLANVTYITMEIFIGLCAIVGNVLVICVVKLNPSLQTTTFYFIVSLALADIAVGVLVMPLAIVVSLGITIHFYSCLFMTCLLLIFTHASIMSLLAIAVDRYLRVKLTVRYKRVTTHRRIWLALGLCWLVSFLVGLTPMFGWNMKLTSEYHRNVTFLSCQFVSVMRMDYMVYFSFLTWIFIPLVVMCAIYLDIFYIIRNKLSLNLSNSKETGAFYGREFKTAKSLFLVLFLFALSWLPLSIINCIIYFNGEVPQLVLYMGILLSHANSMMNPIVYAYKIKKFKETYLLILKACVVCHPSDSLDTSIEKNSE
The assay can be described thus: Binding affinity against Human recombinant Adenosine A3 receptor stably transfected in CHO cells using [3H]NECA as radioligand. It counts as cell-based.

The target in assay [4] is T3, Adenosine receptor A1 (Homo sapiens, UniProt P30542).
T3 sequence (P30542 whole entry): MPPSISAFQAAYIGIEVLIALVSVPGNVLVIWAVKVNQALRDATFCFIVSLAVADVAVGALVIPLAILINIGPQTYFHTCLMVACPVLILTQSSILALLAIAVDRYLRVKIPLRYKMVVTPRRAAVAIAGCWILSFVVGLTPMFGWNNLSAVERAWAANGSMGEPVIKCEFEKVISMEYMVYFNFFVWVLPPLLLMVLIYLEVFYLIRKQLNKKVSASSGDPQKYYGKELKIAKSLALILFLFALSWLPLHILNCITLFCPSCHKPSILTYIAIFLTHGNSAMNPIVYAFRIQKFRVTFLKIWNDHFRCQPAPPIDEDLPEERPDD
The assay can be described thus: Binding affinity against Human recombinant Adenosine A1 receptor stably transfected in CHO cells using [3H]CCPA as radioligand. It is filed as cell-based.

Chain of Adenosine receptor A2a (P29274 whole entry): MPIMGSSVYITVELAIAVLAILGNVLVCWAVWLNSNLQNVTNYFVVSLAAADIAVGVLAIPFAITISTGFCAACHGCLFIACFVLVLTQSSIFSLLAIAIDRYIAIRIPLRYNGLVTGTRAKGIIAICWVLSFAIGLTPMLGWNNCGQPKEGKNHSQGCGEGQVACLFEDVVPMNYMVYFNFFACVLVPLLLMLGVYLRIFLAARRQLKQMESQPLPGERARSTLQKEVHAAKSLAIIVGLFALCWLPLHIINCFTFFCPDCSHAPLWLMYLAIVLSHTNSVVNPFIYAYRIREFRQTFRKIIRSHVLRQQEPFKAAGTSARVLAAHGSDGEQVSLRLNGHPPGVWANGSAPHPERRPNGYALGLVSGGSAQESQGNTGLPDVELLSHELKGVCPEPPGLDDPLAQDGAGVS

As to `CNc1nc(C#CC(O)c2ccccc2)nc2c1ncn2[C@@H]1O[C@H](CO)[C@@H](O)[C@H]1O` (some centres not stated), the EC50 in assay [1] is 2700 nM. For the same compound, the Ki was determined as 273 nM in assay [2], 0.76 nM in assay [3] and 8.4 nM in assay [4].
The like results for `CC(C)Nc1nc(C#CC(O)c2ccccc2)nc2c1ncn2[C@@H]1O[C@H](CO)[C@@H](O)[C@H]1O` (some centres not stated) were, in that order, 6100 nM, 96 nM, 2.3 nM and 1.5 nM.
In the case of `CCNc1nc(C#CC(O)c2ccccc2)nc2c1ncn2[C@@H]1O[C@H](CO)[C@@H](O)[C@H]1O` (some centres not stated), in assay [1], the EC50 was 1700 nM. Besides, the figures for the Ki in assay [2], in assay [3] and in assay [4] were 94 nM, 0.97 nM and 2.7 nM, respectively.
Take `Nc1nc(C#CC(O)c2ccccc2)nc2c1ncn2[C@@H]1O[C@H](CO)[C@@H](O)[C@H]1O` (some centres not stated): the EC50 in assay [1] is 2400 nM. For the same compound, the inhibition constant (Ki) was 7 nM in assay [2], 3.3 nM in assay [3] and 0.67 nM in assay [4].
The like results for `CC(C)Nc1nc(C#Cc2ccccc2)nc2c1ncn2[C@@H]1O[C@H](CO)[C@@H](O)[C@H]1O` were, in that order, above 100000 nM, 1100 nM, 17 nM and 429 nM.
Consider `CCNC(=O)[C@H]1O[C@@H](n2cnc3c(N)nc(C#Cc4ccccc4)nc32)[C@H](O)[C@@H]1O`, for which the EC50 in assay [1] is above 100000 nM. The values for the Ki in assay [2], in assay [3] and in assay [4] were 620 nM, 6.2 nM and 560 nM, respectively.
The like results for `CCNC(=O)[C@H]1O[C@@H](n2cnc3c(N)nc(C#C[C@@H](O)c4ccccc4)nc32)[C@H](O)[C@@H]1O` were, in that order, 220 nM, 2 nM, 0.75 nM and 2.1 nM.
In the case of `CCNC(=O)[C@H]1O[C@@H](n2cnc3c(N)nc(C#C[C@H](O)c4ccccc4)nc32)[C@H](O)[C@@H]1O`, in assay [1], the EC50 came out at 2400 nM. Also, the figures for the Ki in assay [2], in assay [3] and in assay [4] were 39 nM, 5.5 nM and 1.9 nM, respectively.
As to `CCNc1nc(C#C[C@@H](O)c2ccccc2)nc2c1ncn2[C@@H]1O[C@H](CO)[C@@H](O)[C@H]1O`, in assay [1], the EC50 worked out at 730 nM. For the same compound, the Ki was determined as 64 nM in assay [2], 0.2 nM in assay [3] and 3.4 nM in assay [4].
The corresponding values for `CC(C)Nc1nc(C#C[C@@H](O)c2ccccc2)nc2c1ncn2[C@@H]1O[C@H](CO)[C@@H](O)[C@H]1O` are 960 nM, 43 nM, 1.5 nM and 1.7 nM.
The like results for `CCCCC#Cc1nc(NC)c2ncn([C@@H]3O[C@H](CO)[C@@H](O)[C@H]3O)c2n1` were, in that order, 100000 nM, 1230 nM, 1.1 nM and 327 nM.
The corresponding values for `CNc1nc(C#C[C@@H](O)c2ccccc2)nc2c1ncn2[C@@H]1O[C@H](CO)[C@@H](O)[C@H]1O` are 2600 nM, 163 nM, 0.53 nM and 9.6 nM.
In the case of `CCCCC#Cc1nc(NC(C)C)c2ncn([C@@H]3O[C@H](CO)[C@@H](O)[C@H]3O)c2n1`, in assay [1], the EC50 came out at 100000 nM. In addition, the Ki in assay [2] worked out at 196 nM; in assay [3], 9.7 nM; in assay [4], 43 nM.
The corresponding values for `Nc1nc(C#C[C@@H](O)c2ccccc2)nc2c1ncn2[C@@H]1O[C@H](CO)[C@@H](O)[C@H]1O` are 920 nM, 1.8 nM, 1.4 nM and 0.67 nM.
As to `CCCCC#Cc1nc(N)c2ncn([C@@H]3O[C@H](CO)[C@@H](O)[C@H]3O)c2n1`, the EC50 in assay [1] was determined as 100000 nM. Also, the Ki in assay [3] is 4.7 nM.
For `CC(C)(C)OC(=O)C1CCCN1C[C@@H](O)[C@H](Cc1ccccc1)NC(=O)[C@H](CC(N)=O)NC(=O)OCc1ccccc1` (some centres not stated), in assay [1], the EC50 turned out to be 6100 nM. Besides, the inhibition constant Ki is 2.4 nM in assay [3] and 60 nM in assay [4].
For `Nc1nc(C#Cc2ccccc2)nc2c1ncn2[C@@H]1O[C@H](CO)[C@@H](O)[C@H]1O`, in assay [1], the EC50 was above 100000 nM. Further, the Ki in assay [2] was found to be 363 nM; in assay [3], 16 nM; in assay [4] it was 391 nM.
The corresponding values for `Nc1nc(C#C[C@H](O)c2ccccc2)nc2c1ncn2[C@@H]1O[C@H](CO)[C@@H](O)[C@H]1O` are 6200 nM, 29 nM, 5 nM and 0.44 nM.
Consider `CCNc1nc(C#C[C@H](O)c2ccccc2)nc2c1ncn2[C@@H]1O[C@H](CO)[C@@H](O)[C@H]1O`, for which the EC50 in assay [1] came to 9100 nM. Moreover, the inhibitory constant (Ki) in assay [2] came to 1180 nM; in assay [3] it was 1.4 nM; in assay [4] it was 2.2 nM.
The corresponding values for `CNc1nc(C#C[C@H](O)c2ccccc2)nc2c1ncn2[C@@H]1O[C@H](CO)[C@@H](O)[C@H]1O` are 100000 nM, 1560 nM, 1.2 nM and 7.1 nM.
The corresponding values for `CCCCC#Cc1nc(NCC)c2ncn([C@@H]3O[C@H](CO)[C@@H](O)[C@H]3O)c2n1` are 100000 nM, 267 nM, 2.3 nM and 138 nM.
The corresponding values for `CC(C)Nc1nc(C#C[C@H](O)c2ccccc2)nc2c1ncn2[C@@H]1O[C@H](CO)[C@@H](O)[C@H]1O` are 8900 nM, 324 nM, 4.9 nM and 1.1 nM.
Regarding `CNc1nc(C#Cc2ccccc2)nc2c1ncn2[C@@H]1O[C@H](CO)[C@@H](O)[C@H]1O`, the EC50 in assay [1] was found to be 100000 nM. Further, the Ki in assay [2] was 8530 nM; in assay [3] it was 3.4 nM; in assay [4], 1690 nM.
The like results for `CCNc1nc(C#Cc2ccccc2)nc2c1ncn2C1O[C@H](CO)[C@@H](O)[C@H]1O` (some centres not stated) were, in that order, above 100000 nM, 4450 nM, 4.9 nM and 1180 nM.
As to `CCNC(=O)[C@H]1O[C@@H](n2cnc3c(N)nc(C#CC(O)c4ccccc4)nc32)[C@H](O)[C@@H]1O` (mixture of isomers), the EC50 in assay [1] is 1100 nM. Besides, the Ki in assay [2] worked out at 3.1 nM; in assay [3], 0.42 nM; in assay [4], 2.7 nM.
